Values of other authors, collected in US20150182574A1, “COMPOSITIONS AND METHODS FOR ENHANCING MOBILIZATION AND PROLIFERATION OF BLASTOMERE-LIKE STEM CELLS” (Stemtech International, Inc., priority 2012, published 2015).
One block for each molecule: values may come before it.

Tests used:
[1] = temperature and pH dependent
HSCs = conditions: intravenous injection
VSELs = conditions: in vivo

stability in aqueous solutions [1]: readily degrade in aqueous solutions
Molecule: OC[C@H]1O[C@@H](Oc2c(O)cc(O)cc2C=Cc2ccc(O)cc2)[C@H](O)[C@@H](O)[C@@H]1O [2,3,5,4′-tetrahydroxystilbene-2-O-β-d-glycoside]

Molecule: Fucoidan
egress of HSCs from bone marrow into the peripheral blood stream (HSCs): promote the egress of HSCs

B1: G-CSF: granulocyte colony-stimulating factor, mobilization agent (protein, UniProt P09919 31-207, looked up)
Granulocyte …: TPLGPASSLPQSFLLKCLEQVRKIQGDGAALQEKLVSECATYKLCHPEELVLLGHSLGIPWAPLSSCPSQALQLAGCLSQLHSGLFLYQGLLQALEGISPELGPTLDTLQLDVADFATTIWQQMEELGMAPALQPTQGAMPAFASAFQRRAGGVLVASHLQSFLEVSYRVLRHLAQP
numbers of VSELs in peripheral blood (VSELs): increase numbers of VSELs in peripheral blood
